{"source": "patent US11555821B2", "about": "“CA IX-NIR dyes and their uses” (On Target Laboratories, Inc., priority 2016, dated 2023)", "key": {"[1]": {"test_system": "SKRC52 human renal tumor xenograft", "test": "Whole body fluorescence imaging of SKRC52 human renal tumor xenograft bearing mouse (IVIS imager)", "type": "in vivo", "details": "10 nmol", "procedure": "SKRC52 human renal tumor xenograft bearing mouse was injected with 10 nmol of 54 and imaged with IVIS imager (ex=745 nm, em=ICG, exposure time=1 s) at different time intervals.\nSKRC52 human renal tumor xenograft bearing mouse was injected with 10 nmol of 55 and imaged with IVIS imager (ex=745 nm, em=ICG, exposure time=1 s) at different time intervals.\nSKRC52 human renal tumor xenograft bearing mouse was injected with 10 nmol of 60 and imaged with IVIS imager (ex=745 nm, em=ICG, exposure time=[…]) at different time intervals.\nSKRC52 human renal tumor xenograft bearing mouse was injected with 10 nmol of 61 and imaged with IVIS imager (ex=745 nm, em=ICG, exposure time=[…]) at different time intervals.\nSKRC52 human renal tumor xenograft bearing mouse was injected with 10 nmol of 62 and imaged with IVIS imager (ex=745 nm, em=ICG, exposure time=1 s) at different time intervals.\nSKRC52 human renal tumor xenograft bearing mouse was injected with 10 nmol of 65 and imaged with IVIS imager (ex=745 nm, em=ICG, exposure time=1 s) at different time intervals.\nSKRC52 human renal tumor xenograft bearing mouse was injected with 10 nmol of 69 and imaged with IVIS imager (ex=745 nm, em=ICG, exposure time=1 s) at different time intervals.\nSKRC52 human renal tumor xenograft bearing mouse was injected with 10 nmol of 70 and imaged with IVIS imager (ex=745 nm, em=ICG, exposure time=1 s) at different time intervals.\nSKRC52 human renal tumor xenograft bearing mouse was injected with 10 nmol 72 and imaged with IVIS imager (ex=745 nm, em=ICG, exposure time=1 s) at different time intervals\nSKRC52 human renal tumor xenograft bearing mouse was injected with 10 nmol of 76 and imaged with IVIS imager (ex=745 nm, em=ICG, exposure time=1 s) at different time intervals\nSKRC52 human renal tumor xenograft bearing mouse was injected with 10 nmol of 77 and imaged with IVIS imager (ex=745 nm, em=ICG, exposure time=1 s) at different time intervals\nSKRC52 human renal tumor xenograft bearing mouse was injected with 10 nmol of 80 and imaged with IVIS imager (ex=745 nm, em=ICG, exposure time=1 s) at different time intervals\nSKRC52 human renal tumor xenograft bearing mouse was injected with 10 nmol of 81 and imaged with IVIS imager (ex=745 nm, em=ICG, exposure time=1 s) at different time intervals\nSKRC52 human renal tumor xenograft bearing mouse was injected with 10 nmol of 85 and imaged with IVIS imager (ex=745 nm, em=ICG, exposure time=1 s) at different time intervals\nSKRC52 human renal tumor xenograft bearing mouse was injected with 10 nmol of 86 and imaged with IVIS imager (ex=745 nm, em=ICG, exposure time=1 s) at different time intervals\nSKRC52 human renal tumor xenograft bearing mouse was injected with 10 nmol of 87 and imaged with IVIS imager (ex=745 nm, em=ICG, exposure time=1 s) at different time intervals\nSKRC52 human renal tumor xenograft bearing mouse was injected with 10 nmol of 88 and imaged with IVIS imager (ex=745 nm, em=ICG, exposure time=1 s) at different time intervals\nSKRC52 human renal tumor xenograft bearing mouse was injected with 10 nmol of 89 and imaged with IVIS imager (ex=745 nm, em=ICG, exposure time=1 s) at different time intervals\nSKRC52 human renal tumor xenograft bearing mouse was injected with 10 nmol of 90 and imaged with IVIS imager (ex=745 nm, em=ICG, exposure time=1 s) at different time intervals\nSKRC52 human renal tumor xenograft bearing mouse was injected with 10 nmol of 93 and imaged with IVIS imager (ex=745 nm, em=ICG, exposure time=1 s) at different time intervals\nSKRC52 human renal tumor xenograft bearing mouse was injected with 10 nmol of 95 and imaged with IVIS imager (ex=745 nm, em=ICG, exposure time=1 s) at different time intervals\nSKRC52 human renal tumor xenograft bearing mouse was injected with 10 nmol of 99 and imaged with IVIS imager (ex=745 nm, em=ICG, exposure time=1 s) at different time intervals […]"}, "[2]": {"details": "in the presence and absence of light; cited from earlier work"}, "[3]": {"details": "imaged at different time intervals"}, "[4]": {"details": "within 2-24 hours after administering to the animal"}}}
{"smiles": "CC1(C)C(/C=C/C2=C(Oc3ccc(C[C@H](NC(=O)CCOCCOCCNC(=O)CCS(=O)(=O)c4c(F)c(F)c(S(N)(=O)=O)c(F)c4NC4CCCCC4)C(=O)O)cc3)C(=C/C=C3/N(CCCCS(=O)(=O)O)c4ccc(S(=O)(=O)O)cc4C3(C)C)/CCC2)=[N+](CCCCS(=O)(=O)[O-])c2ccc(S(=O)(=O)O)cc21", "note": "[Compound 60]", "values": [{"measurement": "tumor-to-background ratio (TBR)", "setting": "[1]; [3]", "result": "excellent"}, {"measurement": "tumor-to-skin ratio", "setting": "[1]; [3]", "result": "excellent"}, {"measurement": "accumulation retained in the tumor (fluorescence over 24 hours)", "setting": "[1]", "result": "very high accumulation"}, {"measurement": "whole-body imaging data", "setting": "[1]; [4]", "result": "very good"}]}
{"smiles": "CC1(C)C(/C=C/C2=C(Oc3ccc(C[C@H](NC(=O)CCS(=O)(=O)c4c(F)c(F)c(S(N)(=O)=O)c(F)c4NC4CCCCCCC4)C(=O)O)cc3)C(=C/C=C3/N(CCCCS(=O)(=O)O)c4ccc(S(=O)(=O)O)cc4C3(C)C)/CCC2)=[N+](CCCCS(=O)(=O)[O-])c2ccc(S(=O)(=O)O)cc21", "note": "[Compound 62]", "values": [{"measurement": "tumor-to-background ratio (TBR)", "setting": "[1]; [3]", "result": "excellent"}, {"measurement": "tumor-to-skin ratio", "setting": "[1]; [3]", "result": "excellent"}, {"measurement": "accumulation retained in the tumor (fluorescence over 24 hours)", "setting": "[1]", "result": "very high accumulation"}, {"measurement": "whole-body imaging data", "setting": "[1]; [4]", "result": "very good"}]}
{"smiles": "CC1(C)C(/C=C/C2=C(Oc3ccc(C[C@H](NC(=O)CCOCCOCCNC(=O)CCS(=O)(=O)c4c(F)c(F)c(S(N)(=O)=O)c(F)c4NC4CCC(F)(F)CC4)C(=O)O)cc3)C(=C/C=C3/N(CCCCS(=O)(=O)O)c4ccc(S(=O)(=O)O)cc4C3(C)C)/CCC2)=[N+](CCCCS(=O)(=O)[O-])c2ccc(S(=O)(=O)O)cc21", "note": "[Compound 72]", "values": [{"measurement": "tumor-to-background ratio (TBR)", "setting": "[1]; [3]", "result": "excellent"}, {"measurement": "tumor-to-skin ratio", "setting": "[1]; [3]", "result": "excellent"}, {"measurement": "accumulation retained in the tumor (fluorescence over 24 hours)", "setting": "[1]", "result": "very high accumulation"}, {"measurement": "whole-body imaging data", "setting": "[1]; [4]", "result": "very good"}]}
{"smiles": "CC(C)C[C@H](Nc1c(F)c(S(N)(=O)=O)c(F)c(F)c1S(=O)(=O)CCC(=O)NCCOCCOCCC(=O)N[C@@H](Cc1ccc(OC2=C(/C=C/C3=[N+](CCCCS(=O)(=O)[O-])c4ccc(S(=O)(=O)O)cc4C3(C)C)CCC/C2=C\\C=C2\\N(CCCCS(=O)(=O)O)c3ccc(S(=O)(=O)O)cc3C2(C)C)cc1)C(=O)O)C(=O)OCc1ccccc1", "note": "[Compound 76]", "values": [{"measurement": "tumor-to-background ratio (TBR)", "setting": "[1]; [3]", "result": "excellent"}, {"measurement": "tumor-to-skin ratio", "setting": "[1]; [3]", "result": "excellent"}, {"measurement": "accumulation retained in the tumor (fluorescence over 24 hours)", "setting": "[1]", "result": "very high accumulation"}, {"measurement": "whole-body imaging data", "setting": "[1]; [4]", "result": "very good"}]}
{"smiles": "CC(C)C[C@H](Nc1c(F)c(S(N)(=O)=O)c(F)c(F)c1S(=O)(=O)CCC(=O)NCCOCCOCCC(=O)N[C@@H](Cc1ccc(OC2=C(/C=C/C3=[N+](CCCCS(=O)(=O)[O-])c4ccc(S(=O)(=O)O)cc4C3(C)C)CCC/C2=C\\C=C2\\N(CCCCS(=O)(=O)O)c3ccc(S(=O)(=O)O)cc3C2(C)C)cc1)C(=O)O)C(=O)O", "note": "[Compound 77]", "values": [{"measurement": "tumor-to-background ratio (TBR)", "setting": "[1]; [3]", "result": "excellent"}, {"measurement": "tumor-to-skin ratio", "setting": "[1]; [3]", "result": "excellent"}, {"measurement": "accumulation retained in the tumor (fluorescence over 24 hours)", "setting": "[1]", "result": "very high accumulation"}, {"measurement": "whole-body imaging data", "setting": "[1]; [4]", "result": "very good"}]}
{"smiles": "CC1(C)C(/C=C/C2=C(Oc3ccc(C[C@H](NC(=O)CCOCCOCCNC(=O)CCS(=O)(=O)c4ccc(S(N)(=O)=O)cc4NC4CCCCCCC4)C(=O)O)cc3)C(=C/C=C3/N(CCCCS(=O)(=O)O)c4ccc(S(=O)(=O)O)cc4C3(C)C)/CCC2)=[N+](CCCCS(=O)(=O)[O-])c2ccc(S(=O)(=O)O)cc21", "note": "[Compound 85]", "values": [{"measurement": "tumor fluorescence intensity and tumor-to-background ratio compared to the compound 61", "setting": "[1]", "result": "less"}, {"measurement": "tumor-to-background ratio (TBR)", "setting": "[1]; [3]", "result": "excellent"}, {"measurement": "tumor-to-skin ratio", "setting": "[1]; [3]", "result": "excellent"}, {"measurement": "accumulation retained in the tumor (fluorescence over 24 hours)", "setting": "[1]", "result": "very high accumulation"}, {"measurement": "whole-body imaging data", "setting": "[1]; [4]", "result": "very good"}]}
{"smiles": "CC1(C)C(/C=C/C2=C(Oc3ccc(C[C@H](NC(=O)CCOCCOCCNc4c(F)c(S(N)(=O)=O)c(F)c(F)c4S(=O)(=O)CCO)C(=O)O)cc3)C(=C/C=C3/N(CCCCS(=O)(=O)O)c4ccc(S(=O)(=O)O)cc4C3(C)C)/CCC2)=[N+](CCCCS(=O)(=O)[O-])c2ccc(S(=O)(=O)O)cc21", "note": "[Compound 86]", "values": [{"measurement": "brightness compared to 60 and 61", "setting": "[1]", "result": "less brighter"}, {"measurement": "whole-body imaging data", "setting": "[1]; [4]", "result": "very good"}]}
{"smiles": "CC1(C)C(=CC=C2CCCC(C=CC3=[N+](CCCCS(=O)(=O)[O-])c4ccc(S(=O)(=O)O)cc4C3(C)C)=C2Oc2ccc(CC(NC(=O)CCOCCOCCNC(=O)CCS(=O)(=O)c3c(F)c(F)c(S(N)(=O)=O)c(F)c3NC(c3ccccc3)c3ccccc3)C(=O)O)cc2)N(CCCCS(=O)(=O)O)c2ccc(S(=O)(=O)O)cc21", "note": "(stereo not shown) [Compound 88]", "values": [{"measurement": "whole-body imaging data", "setting": "[1]; after 8 hours of administering", "result": "good"}, {"measurement": "tumor-to-background ratio (TBR)", "setting": "[1]; at 24 hour time point", "result": "excellent"}, {"measurement": "tumor-to-skin ratio", "setting": "[1]; at 24 hour time point", "result": "excellent"}]}
{"smiles": "CN(C)C(N(c1c(F)c(S(N)(=O)=O)c(F)c(F)c1S(=O)(=O)CCC(=O)NCCOCCOCCC(=O)N[C@@H](Cc1ccc(OC2=C(/C=C/C3=[N+](CCCCS(=O)(=O)O)c4ccc(S(=O)(=O)O)cc4C3(C)C)CCC/C2=C\\C=C2\\N(CCCCS(=O)(=O)O)c3ccc(S(=O)(=O)O)cc3C2(C)C)cc1)C(=O)O)C1CCCCCCC1)=[N+](C)C", "note": "[Compound 104]", "values": [{"measurement": "tumor-to-background ratio (TBR)", "setting": "[1]; [3]", "result": "excellent"}, {"measurement": "tumor-to-skin ratio", "setting": "[1]; [3]", "result": "excellent"}, {"measurement": "accumulation retained in the tumor (fluorescence over 24 hours)", "setting": "[1]", "result": "very high accumulation"}, {"measurement": "whole-body imaging data", "setting": "[1]; [4]", "result": "good"}]}
{"smiles": "CC1(C)C(/C=C/C=C/C=C/C=C2\\N(CCCCS(=O)(=O)[O-])c3ccc4ccccc4c3C2(C)C)=[N+](CCCCS(=O)(=O)[O-])c2ccc3ccccc3c21.[Na+]", "note": "[IR125]", "values": [{"measurement": "in vitro cytotoxicity", "setting": "[2]", "result": "significant values of cytotoxicity"}]}
{"smiles": "CN1/C(=C/C=C2\\CCCC(/C=C/C3=[N+](C)c4ccc5ccccc5c4C3(C)C)=C2Cl)C(C)(C)c2c1ccc1ccccc21.Cc1ccc(S(=O)(=O)[O-])cc1", "note": "[IR813]", "values": [{"measurement": "in vitro cytotoxicity", "setting": "[2]", "result": "significant values of cytotoxicity"}]}
{"smiles": "CC1(C)C(=CC=C2CCCC(C=CC3=[N+](CCCCS(=O)(=O)[O-])c4ccc5ccccc5c4C3(C)C)=C2Cl)N(CCCCS(=O)(=O)[O-])c2ccc3ccccc3c21.[Na+]", "note": "[IR820]", "values": [{"measurement": "in vitro cytotoxicity", "setting": "[2]", "result": "no major cytotoxic effects"}]}
